Test results taken from article PMC9241695, “Selective Metal Chelation by a Thiosemicarbazone Derivative Interferes with Mitochondrial Respiration and Ribosome Biogenesis in Candida albicans” (Microbiology Spectrum, 2022).
≈ marks a conversion by molar mass, not a printed value.

Legend:
A. fumigatus AF293 = experiment: Antifungal susceptibility testing, microbroth dilution MIC; type: cell-based; conditions: Aspergillus fumigatus, AF293; standard strain of A. fumigatus; 48 h; read-out: MIC (μg/mL) against fungi AF293
Source text: (§1) Compound library. The thiosemicarbazone derivatives Triapine and COTI-2 were purchased from Med Chem Express (MCE). The other 87 thiosemicarbazones used in this study were previously synthesized by our collaborators (1, 2). Their structures are shown in Table 1 and Table S1 to help the reader clearly understand the relationship between structure and activity.
(§2) Strains and culture conditions. Clinically derived C. albicans isolates, including G5, F5, and Gu5, were kindly provided by Professor Joachim Morschhäuser of the University of Würzburg. Other clinical C. albicans isolates were kindly donated by Professor Qingguo Qi of Shandong University and Qianfoshan Hospital of Shandong Province Other Candida strains were obtained from Jinan Central Hospital.
(§3) The zap1 mutant and its complemented strain were kindly provided by Professor Aaron P. Mitchell of Carnegie Mellon University (3). The C. neoformans strains used in this study was kindly donated by Professor Guojian Liao of Southwest University and A. fumigatus strain used in this study was provided by Professor Ling Lu of Nanjing Normal University. […]
(§4) Antifungal susceptibility testing. To determine in vitro antifungal activities, the microbroth dilution method was carried out in RPMI1640 medium according to the guidelines of the Clinical and Laboratory Standards Institute (4, 5). The initial concentration in RPMI1640 medium was 1 × 10^3 CFU/mL for the C. albicans and C. neoformans suspensions but 1 × 10^4 CFU/mL for A. fumigatus. The range of final drug concentrations was 0.0156–64 μg/mL. The plates were incubated at35°C for 24 […]
(§5) h (for C. albicans, C. krusei, C. tropicalis, C. parapsilosis) or 48 h (for C. neoformans, A. fumigatus). The MIC was determined based on visible growth inhibition compared with the control. All experiments were performed in duplicate. […]

A. fumigatus 1161 = experiment: Microbroth dilution MIC80; type: cell-based; conditions: Aspergillus fumigatus; A. fumigatus 1161; read-out: MIC80
Source text: as §1, §2
as §3, with “University. Before in vitro and in vivo experiments, all C. albicans strains were grown on YPD agar plates. After culturing at 30°C for 24 h, colonies of each strain were cultured in liquid YPD medium at 30°C with continuous shaking” for “University.”
as §4, §5

Structure (SMILES): C[C@@H](c1ncncc1F)[C@](O)(Cn1cncn1)c1ccc(F)cc1F [VOR, voriconazole, reference compound]
- MIC (A. fumigatus AF293): 0.25 µg/mL (≈ 0.716 µM)
- MIC80 (A. fumigatus 1161): 0.25 µg/mL (≈ 0.716 µM)
